Assay results taken from patent US20210405025A1, “IDENTIFYING COMPOUNDS FOR TREATING CANCER AND USE THEREOF” (THE UAB RESEARCH FOUNDATION, priority 2018, published 2021).
Counter-ions that a name gives are not always drawn. Starred links: 1 amine or outer side, 2 acyl side, 3 side chain; linkers in the order of their positions; H or OH if unused. Positions of bridges follow the written chain, without caps; N, C: chain ends. Non-standard residues stand in square brackets, D forms with d. Residues, ends and D or L forms follow the SMILES beside them. Chains are numbered I, II in the order given. Actinocin(9to1) = Cc1c2oc3c(C)ccc(C(=O)[*:1])c3nc-2c(C(=O)[*:2])c(N)c1=O; NMeV = CN[C@H](C(=O)O)C(C)C; Sar = CNCC(=O)O

test system: relapsed AML cells; assay: Drug sensitivity assay, 1,536-well, 3-day culture with individual approved drugs at 10 μM, viability by alamarBlue; format: cell-based, human; settings: not given
Method: Drug sensitivity assays were performed using a 1,536-well platform where all cells and reagents were deposited in wells using an acoustic liquid handling unit that is highly accurate for dispensing of nanoliter volumes of liquid. […] After dispensing the cells into the wells, an independent drug at a known concentration is added to each well and incubated with the cells. After three days, the percentage of live cells in each well is determined to assess the killing efficiency of each compound. […] Cell viability assays are known to those of skill in the art. See, for example, Pemovska et al., Individualized systems medicine strategy to tailor treatments for patients with chemorefractory acute myeloid leukemia. Cancer Discovery 3:1416-1429, 2013; Pabst et al., Identification of small molecules that support human leukemia stem cell activity ex vivo. Nature Methods 11:436-442, 2014; Baccelli et al., A novel approach for the identification of efficient combination therapies in primary human acute myeloid leukemia specimens. Blood Cancer Journal 7:e529, 2017. In studies described herein, the 1,536-well format was utilized, which allowed for use of four times fewer cells as well as less drug and media components due to the small assay volume of 5 microliters. […] Other compounds like CellTiter-Glo (Promega, Madison, Wis.) are equally appropriate reagents for determining cell viability.
Conditions for the drug screening assays were as described in Pabst et al., Identification of small molecules that support human leukemia stem cell activity ex vivo, Nature Methods 11:436-442, 2014). Using this protocol, cells were cultured in Iscove's Modified Dulbecco's Medium (IMDM), 15% BIT (bovine serum albumin, insulin, transferrin; Stem Cell Technologies 09500 (Vancouver, Calif.)), 100 ng/ml SCF (Shenandoah 100-04 (Warwick, Pa.)), 50 ng/ml FLT3L (Shenandoah 100-21), 20 ng/ml IL-3 (Shenandoah 100-80), 20 ng/ml G-CSF (Shenandoah 100-72), 10^-4 M β-mercaptoethanol, gentamicin (50 μg/ml) and ciprofloxacin (10 μg/ml).
Cells were removed from liquid nitrogen and placed in a 37° C. bath, just until thawed. For 1,536-well screens utilizing 6,000 wells about 100 million cells were thawed. The volume was doubled with pre-warmed culture media and placed on ice for about one to two minutes. The cells were brought to a final volume of about 8 to 10 mL before spinning down at 1,100 rpm for 5 min at 10° C. The pelleted cells were resuspended in 10 mL of culture media and plated in a tissue-culture treated T75 flask at a density of 1 to 2 million cells/ml. The cells were cultured overnight prior to fluorescence-activated cell sorting of viable cells on the following day.
After cells were cultured overnight, a cell scraper was used to remove any cells that adhered to the plastic. The cells were gently pipetted up and down to break up aggregates. Then, the entire volume was transferred to a 50 mL conical tube through a 70 micron cell strainer to remove cell clumps. The T75 flask was rinsed and scraped with about 10 mL HBSS and transferred to the same 50 mL conical tube through the strainer. The harvested cells were spun down at 1,100 rpm for 5 min at 10° C. The cells were then resuspendd in about 300-500 microliters FACS buffer (HBSS+2% FBS+1× propidium iodide) and transferred to a FACS tube. The tube was placed on ice and viable cells that are forward- and side-scatter gated on viable myeloid blasts were sorted by FACS (the scatter gate should exclude small lymphocytes, large myeloid cells, and debris). After sorting the required number of viable cells, the cells were spun down at 1,100 rpm for 5 min at 10° C. and subsequently resuspended at 4,000-4,500 cells per 5 microliter volume of complete culture media with growth factors and penicillin/streptomycin.

| Structure (SMILES) | #Cases >70% cell death |
| --- | --- |
| COC(=O)C1=C(C)NC(C)=C(C(=O)OCCCN2CCC(c3ccccc3)(c3ccccc3)CC2)[C@@H]1c1cccc([N+](=O)[O-])c1 [DEXNIGULDIPINE] | 8 |

same assay, conditions: number of relapsed AML cases out of 18 tested with >70% cell death; 10 μM, 3-day culture

| Structure (SMILES) | #Cases >70% cell death |
| --- | --- |
| Clc1ccc(CCC(Cn2ccnc2)Sc2c(Cl)cccc2Cl)cc1 (centres unmarked) [BUTOCONAZOLE] | 1 |
| CO[C@H]1C(=O)[C@]2(C)[C@@H](OC)C[C@H]3OC[C@@]3(OC(C)=O)[C@H]2[C@H](OC(=O)c2ccccc2)[C@]2(O)C[C@H](OC(=O)[C@H](O)[C@@H](NC(=O)OC(C)(C)C)c3ccccc3)C(C)=C1C2(C)C [CABAZITAXEL] | 5 |
| COc1cc2nccc(Oc3ccc(NC(=O)C4(C(=O)Nc5ccc(F)cc5)CC4)cc3)c2cc1OC [CABOZANTINIB] | 2 |
| CC[C@@]1(O)C(=O)OCc2c1cc1n(c2=O)Cc2cc3ccccc3nc2-1 [CAMPTOTHECIN] | 12 |
| COc1cc(CNC(=O)CCCC/C=C/C(C)C)ccc1O [CAPSAICIN] | 1 |
| CC(C)C[C@H](NC(=O)[C@H](CCc1ccccc1)NC(=O)CN1CCOCC1)C(=O)N[C@@H](Cc1ccccc1)C(=O)N[C@@H](CC(C)C)C(=O)[C@@]1(C)CO1 [CARFILZOMIB] | 18 |
| C/C=C(\C)C(=O)N[C@@H](c1ccccc1)[C@@H](O)C(=O)O[C@H]1C[C@@]2(O)[C@@H](OC(=O)c3ccccc3)[C@@H]3[C@]4(OC(C)=O)CO[C@@H]4C[C@H](O)[C@@]3(C)C(=O)[C@H](OC(C)=O)C(=C1C)C2(C)C [CEPHALOMANNINE] | 7 |
| COCc1c(C(C)C)nc(C(C)C)c(/C=C/[C@@H](O)C[C@@H](O)CC(=O)O)c1-c1ccc(F)cc1 [CERIVASTATIN] | 17 |
| CCCCCCCCCCCCCCCC[N+](C)(C)C.[Br-] [CETRIMONIUM BROMIDE] | 17 |
| CS(=O)(=O)N1CCc2c(-c3cnc(N)nc3)nc(N3CCOCC3)nc21 [CH5132799] | 3 |
| [H]/N=C(\N/C(=N/[H])NCCCCCCNC(=N)NC(=N)Nc1ccc(Cl)cc1)Nc1ccc(Cl)cc1 [CHLORHEXIDINE DIHYDROCHLORIDE] | 11 |
| Cc1nc2ccccc2n1Cc1ccc(Cl)cc1 [CHLORMIDAZOLE] | 1 |
| Oc1c(Cl)cc(Cl)c2cccnc12 [CHLOROXINE] | 1 |
| Cc1ncc2c(c1O)COC2c1ccc(Cl)cc1 (centres unmarked) [CICLETANINE] | 4 |
| Cc1cc(C2CCCCC2)n(O)c(=O)c1 [CICLOPIROX] | 14 |
| COCCOC(=O)C1=C(C)NC(C)=C(C(=O)OC/C=C/c2ccccc2)C1c1cccc([N+](=O)[O-])c1 (centres unmarked) [CILNIDIPINE] | 1 |
| Nc1nc(Cl)nc2c1ncn2[C@H]1C[C@H](O)[C@@H](CO)O1 [CLADRIBINE] | 17 |
| CN1CCC[C@@H]1CCO[C@](C)(c1ccccc1)c1ccc(Cl)cc1 [CLEMASTINE] | 1 |
| Clc1ccc(Cn2c(CN3CCCC3)nc3ccccc32)cc1 [CLEMIZOLE HYDROCHLORIDE] | 1 |
| CC(C)(C)C(=O)C(Oc1ccc(Cl)cc1)n1ccnc1 (centres unmarked) [CLIMBAZOLE] | 1 |
| Oc1c(I)cc(Cl)c2cccnc12 [CLIOQUINOL] | 6 |
| CCC(=O)O[C@]1(C(=O)CCl)[C@@H](C)C[C@H]2[C@@H]3CCC4=CC(=O)C=C[C@]4(C)[C@@]3(F)[C@@H](O)C[C@@]21C [CLOBETASOL PROPIONATE] | 4 |
| Nc1nc(Cl)nc2c1ncn2[C@@H]1O[C@H](CO)[C@@H](O)[C@@H]1F [CLOFARABINE] | 18 |

| Structure (SMILES) | #Cases >70% cell death |
| --- | --- |
| CC(C)/N=c1\cc2n(-c3ccc(Cl)cc3)c3ccccc3nc-2cc1Nc1ccc(Cl)cc1 [CLOFAZIMINE] | 6 |
| CCN(CC)CCOc1ccc(C(=C(Cl)c2ccccc2)c2ccccc2)cc1 [CLOMIFENE] | 10 |
| COc1c(C)cnc(Cn2cnc3c(Cl)nc(N)nc32)c1C [CNF-2024] | 18 |
| COc1cc2c(c(OC)c1OC)-c1ccc(OC)c(=O)cc1[C@@H](NC(C)=O)CC2 [COLCHICINE] | 13 |
| CCNC1(C(N)=O)CCN(c2ncnc3c2nc(-c2ccccc2Cl)n3-c2ccc(Cl)cc2)CC1 [CP-945] | 1 |
| C[C@@H](Oc1cc(-c2cnn(C3CCNCC3)c2)cnc1N)c1c(Cl)ccc(F)c1Cl [CRIZOTINIB] | 10 |
| COc1cc(/C=C/C(=O)CC(=O)/C=C/c2ccc(O)c(OC)c2)ccc1O [CURCUMIN] | 1 |
| C[C@@H]1C[C@@H]([C@H](O)CC2CC(=O)NC(=O)C2)C(=O)[C@@H](C)C1 [CYCLOHEXIMIDE] | 18 |
| CC(=O)[C@@]1(O)CC[C@H]2[C@@H]3C=C(Cl)C4=CC(=O)[C@@H]5C[C@@H]5[C@]4(C)[C@H]3CC[C@@]21C [CYPROTERONE] | 1 |
| N#CCNC(=O)c1ccc(-c2ccnc(Nc3ccc(N4CCOCC4)cc3)n2)cc1 [CYT387] | 14 |
| Nc1ccn([C@@H]2O[C@H](CO)[C@@H](O)[C@@H]2O)c(=O)n1 [CYTARABINE] | 16 |
| N[C@@H]1CONC1=O [D-CYCLOSERINE] | 1 |
| CC(C)(C)c1nc(-c2cccc(NS(=O)(=O)c3c(F)cccc3F)c2F)c(-c2ccnc(N)n2)s1 [DABRAFENIB] | 4 |
| CN(C)/N=N/c1[nH]cnc1C(N)=O [DACARBAZINE] | 14 |
| Cc1c2oc3c(C)ccc(C(=O)N[C@@H]4C(=O)N[C@H](C(C)C)C(=O)N5CCC[C@H]5C(=O)N(C)CC(=O)N(C)[C@@H](C(C)C)C(=O)O[C@@H]4C)c3nc-2c(C(=O)N[C@@H]2C(=O)N[C@H](C(C)C)C(=O)N3CCC[C@H]3C(=O)N(C)CC(=O)N(C)[C@@H](C(C)C)C(=O)O[C@@H]2C)c(N)c1=O [DACTINOMYCIN] (I: T[dV]P[Sar][NMeV] / II: T[dV]P[Sar][NMeV]; ester I:1-I:C, II:1-II:C; linker I:N-II:N via Actinocin(9to1)) | 17 |
| C#C[C@]1(O)CC[C@H]2[C@@H]3CCC4=Cc5oncc5C[C@]4(C)[C@H]3CC[C@@]21C [DANAZOL] | 1 |
| CCN(CC)CCN(Cc1ccc(-c2ccc(C(F)(F)F)cc2)cc1)C(=O)Cn1c(SCc2ccc(F)cc2)nc(=O)c2c1CCC2 [DARAPLADIB] | 18 |
| Cc1nc(Nc2ncc(C(=O)Nc3c(C)cccc3Cl)s2)cc(N2CCN(CCO)CC2)n1 [DASATINIB] | 6 |
| COc1cccc2c1C(=O)c1c(O)c3c(c(O)c1C2=O)C[C@@](O)(C(C)=O)C[C@@H]3O[C@H]1C[C@H](N)[C@H](O)[C@H](C)O1 [DAUNORUBICIN] | 18 |
| CC(=O)OCC(=O)[C@@]12N=C(C)O[C@@H]1C[C@H]1[C@@H]3CCC4=CC(=O)C=C[C@]4(C)[C@H]3[C@@H](O)C[C@@]12C [DEFLAZACORT] | 8 |
| Cc1cc(N)c2ccccc2[n+]1CCCCCCCCCC[n+]1c(C)cc(N)c2ccccc21 [DEQUALINIUM CHLORIDE] | 17 |
| Clc1ccc2c(c1)CCc1cccnc1C2=C1CCNCC1 [DESLORATADINE] | 1 |
| C[C@@H]1C[C@H]2[C@@H]3CCC4=CC(=O)C=C[C@]4(C)[C@@]3(F)[C@@H](O)C[C@]2(C)[C@@]1(O)C(=O)CO [DEXAMETHASONE] | 2 |
